Drawing on patent US20230295157A1, “3-(1H-IMIDAZOL-2-YL)-2,3,8,8A-TETRAHYDROINDOLIZIN-5(1H)-ONE DERIVATIVES USEFUL AS FACTOR XIA INHIBITORS” (JANSSEN PHARMACEUTICA NV, priority 2020, published 2023), this text covers IC50 for 20 molecules.

Read-outs that look alike come from different tables or passages of the source.

In one assay the target is human plasma kallikrein (Homo sapiens (Human), UniProt P03952). The experiment in a line: Kallikrein inhibition assay (FLINT) utilizing a quenched AMC peptide substrate. The following applies: 30 min preincubation, kinetic reads over 30 min, Z-Gly-Pro-Arg-AMC substrate 50 μM; read-out: Kallikrein Kin Inh IC50. It counts as biochemical. The gist of the method: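 Enzyme (2 nM final) pre-incubated 30 min at room temperature with compound (11-point, 3-fold, top 1 μM, 2% DMSO), then 50 μM Z-Gly-Pro-Arg-AMC added in Tris pH 7.5 buffer. Kinetic fluorescence 340/440 nm every 5 min over 30 min; IC50 from 4-parameter logistic fit.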
human plasma kallikrein, sequence (P03952 391-638): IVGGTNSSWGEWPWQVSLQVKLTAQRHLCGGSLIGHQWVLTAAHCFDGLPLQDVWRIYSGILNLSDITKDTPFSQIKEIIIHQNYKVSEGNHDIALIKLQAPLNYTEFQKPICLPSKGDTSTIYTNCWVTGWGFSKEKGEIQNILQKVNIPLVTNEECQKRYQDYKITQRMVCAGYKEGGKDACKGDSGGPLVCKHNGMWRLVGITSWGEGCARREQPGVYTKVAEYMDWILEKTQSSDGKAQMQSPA
human plasma kallikrein, sequence (P03952 20-390 partner): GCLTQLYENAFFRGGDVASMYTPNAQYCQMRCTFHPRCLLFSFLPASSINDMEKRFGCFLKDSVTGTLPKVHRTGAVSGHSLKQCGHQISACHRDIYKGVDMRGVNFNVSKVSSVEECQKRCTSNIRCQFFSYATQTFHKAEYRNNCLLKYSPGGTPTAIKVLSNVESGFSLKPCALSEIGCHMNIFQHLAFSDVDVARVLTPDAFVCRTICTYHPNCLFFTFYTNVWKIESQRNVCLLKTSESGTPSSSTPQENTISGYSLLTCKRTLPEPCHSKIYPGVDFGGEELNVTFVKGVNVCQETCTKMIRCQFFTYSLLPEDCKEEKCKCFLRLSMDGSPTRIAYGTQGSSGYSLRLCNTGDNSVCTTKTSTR

The target in another assay is Factor XIa (Homo sapiens (Human), UniProt P03951). In words: Factor XIa inhibition assay (FLINT) utilizing a fluorophore-quencher pair peptide substrate. Format: biochemical. Conditions: 30 min preincubation, kinetic reads over 30 min, read-out: FXIa Kin Inh IC50. The gist of the method: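 FXIa ([…]) preincubated 30 min with compound (11-point 3-fold dilution, top 100 nM, 2% DMSO), then 15 μM quenched FXI Arg146-based peptide added; Tris pH 7.5, CaCl2, BSA, CHAPS. Fluorescence 485/520 nm read kinetically every 5 min over 30 min at RT; IC50 by 4-parameter fit.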
Factor XIa, sequence (P03951 388-625): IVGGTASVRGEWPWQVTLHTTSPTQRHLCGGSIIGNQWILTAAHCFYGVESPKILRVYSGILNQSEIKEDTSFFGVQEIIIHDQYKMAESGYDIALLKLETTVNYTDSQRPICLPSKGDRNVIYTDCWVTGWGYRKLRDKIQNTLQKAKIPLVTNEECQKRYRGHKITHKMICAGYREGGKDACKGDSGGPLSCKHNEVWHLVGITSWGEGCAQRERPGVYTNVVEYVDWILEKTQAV
Factor XIa, sequence (P03951 19-387 partner): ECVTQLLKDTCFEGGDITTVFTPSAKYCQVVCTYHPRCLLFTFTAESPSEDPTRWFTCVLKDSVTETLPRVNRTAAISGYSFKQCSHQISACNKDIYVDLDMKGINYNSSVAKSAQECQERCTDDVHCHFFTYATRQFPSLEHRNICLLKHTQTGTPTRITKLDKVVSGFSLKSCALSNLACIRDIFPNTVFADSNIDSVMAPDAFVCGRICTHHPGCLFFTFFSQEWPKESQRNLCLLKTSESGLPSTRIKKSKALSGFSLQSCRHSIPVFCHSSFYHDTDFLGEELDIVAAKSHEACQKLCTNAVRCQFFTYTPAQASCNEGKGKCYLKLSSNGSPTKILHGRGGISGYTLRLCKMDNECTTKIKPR

[1] abbreviates: 5Fam-KLTRAETV-K5Tamra substrate 15 μM.
Where [2] appears, read: 5Fam-[…]-K5Tamra substrate 15 μM.

For `C[C@H](O)c1nccc(-c2cnc([C@@H]3CC[C@@H]4CC(c5c(-n6cnnn6)ccc(Cl)c5F)=CC(=O)N43)[nH]2)c1F` [Example 186, (3S,8aR)-7-(3-chloro-2-fluoro-6-(1H-tetrazol-1-yl)phenyl)-3-(5-(3-fluoro-2-((S)-1-hydroxyethyl)pyridin-4-yl)-1H-imidazol-2-yl)-2,3,8,8a-tetrahydroindolizin-5(1H)-one], the half-inhibitory concentration (IC50) at human plasma kallikrein came to 35.1 nM; on Factor XIa (setting [1]), 4.6 nM.
In the same order, the values of `O=C1C=C(c2c(-n3cnnn3)ccc(Cl)c2F)C[C@H]2CC[C@H](c3ncc(-c4ccnc(N5CCC[C@H](O)C5)c4F)[nH]3)N12` [Example 188, (3R,8aR)-7-(3-chloro-2-fluoro-6-(1H-tetrazol-1-yl)phenyl)-3-(5-(3-fluoro-2-((S)-3-hydroxypiperidin-1-yl)pyridin-4-yl)-1H-imidazol-2-yl)-2,3,8,8a-tetrahydroindolizin-5(1H)-one] are 7.8 nM and 17.2 nM.
As to `[2H]C([2H])(O)c1nccc(-c2cnc([C@@H]3CCC4CC(c5c(-n6cnnn6)ccc(Cl)c5F)=CC(=O)N43)[nH]2)c1Cl` (stereo partly drawn) [Example 189, (3S)-3-(5-(3-chloro-2-(hydroxymethyl-d2)pyridin-4-yl)-1H-imidazol-2-yl)-7-(3-chloro-2-fluoro-6-(1H-tetrazol-1-yl)phenyl)-2,3,8,8a-tetrahydroindolizin-5(1H)-one], the IC50 at human plasma kallikrein amounted to 16.7 nM; at Factor XIa (setting [2]) it was 1.8 nM.
For the molecule `CC(C)(O)COc1nccc(-c2c[nH]c([C@@H]3CC[C@@H]4CC(c5c(-n6cnnn6)ccc(Cl)c5F)=CC(=O)N43)n2)c1F` [Example 190], the figures for the concentration for half-maximal inhibition (IC50) at human plasma kallikrein and on Factor XIa (setting [1]) were 9.4 nM and 1.2 nM, respectively.
In the case of `CC(C)(O)COc1nccc(-c2c[nH]c([C@@H]3CC[C@@H]4CC(c5c(-n6cc(C(F)(F)F)nn6)ccc(Cl)c5F)=CC(=O)N43)n2)c1F` [Example 191, (3S,8aR)-7-(3-Chloro-2-fluoro-6-(4-(trifluoromethyl)-1H-1,2,3-triazol-1-yl)phenyl)-3-(4-(3-fluoro-2-(2-hydroxy-2-methylpropoxy)pyridin-4-yl)-1H-imidazol-2-yl)-2,3,8,8a-tetrahydroindolizin-5(1H)-one], the IC50 on human plasma kallikrein stood at 34.3 nM; at Factor XIa (setting [2]), 3.8 nM.
In the same order, the values of `CS(=O)(=O)NC(=O)c1sc(-c2c[nH]c(C3CC[C@@H]4CC(c5c(-n6cc(C(F)(F)F)nn6)ccc(Cl)c5F)=CC(=O)N34)n2)cc1F` (stereo partly drawn) [Example 192, 5-(2-((8aR)-7-(3-chloro-2-fluoro-6-(4-(trifluoromethyl)-1H-1,2,3-triazol-1-yl)phenyl)-5-oxo-1,2,3,5,8,8a-hexahydroindolizin-3-yl)-1H-imidazol-4-yl)-3-fluoro-N-(methylsulfonyl)thiophene-2-carboxamide] are 29.5 nM and 5.4 nM.
On to `O=C(O)c1ccc(-c2cnc([C@@H]3CCC4CC(c5c(-n6cc(Cl)nn6)ccc(Cl)c5F)=CC(=O)N43)[nH]2)s1` (stereo partly drawn) [Example 193, 5-(2-((3S)-7-(3-chloro-6-(4-chloro-1H-1,2,3-triazol-1-yl)-2-fluorophenyl)-5-oxo-1,2,3,5,8,8a-hexahydroindolizin-3-yl)-1H-imidazol-4-yl)thiophene-2-carboxylic acid], for which the figures for the IC50 at human plasma kallikrein and at Factor XIa (setting [1]) were 14.3 nM and 0.4 nM, respectively.
In the same order, the values of `NC(=O)c1ccc(-c2cnc([C@@H]3CC[C@@H]4CC(c5c(-n6cnnn6)ccc(Cl)c5F)=CC(=O)N43)[nH]2)c(F)c1` [Example 196, 4-(2-((3S,8aR)-7-(3-chloro-2-fluoro-6-(1H-tetrazol-1-yl)phenyl)-5-oxo-1,2,3,5,8,8a-hexahydroindolizin-3-yl)-1H-imidazol-4-yl)-3-fluorobenzamide] are 3.4 nM and 0.6 nM.
As for `NC(=O)c1ccc(-c2c[nH]c([C@@H]3CC[C@H]4CC(c5c(-n6cnnn6)ccc(Cl)c5F)=CC(=O)N43)n2)cc1F` [Example 198, 4-(2-((3S,8aS)-7-(3-chloro-2-fluoro-6-(1H-tetrazol-1-yl)phenyl)-5-oxo-1,2,3,5,8,8a-hexahydroindolizin-3-yl)-1H-imidazol-4-yl)-2-fluorobenzamide], the half-maximal inhibitory concentration (IC50) on human plasma kallikrein was determined as 14.3 nM; on Factor XIa (setting [2]), 30.5 nM.
Take `O=C1C=C(c2c(-n3cnnn3)ccc(Cl)c2F)CC2CC[C@@H](c3nc(Cl)c(-c4cc[nH]c(=O)c4)[nH]3)N12` (stereo partly drawn) [Example 199, (3S)-7-(3-chloro-2-fluoro-6-(1H-tetrazol-1-yl)phenyl)-3-(4 chloro-5-(2-oxo-1,2-dihydropyridin-4-yl)-1H-imidazol-2-yl)-2,3,8,8a-tetrahydroindolizin-5(1H)-one]: the concentration for half-maximal inhibition (IC50) at human plasma kallikrein came out at 15.6 nM; on Factor XIa (setting [1]) it was 1.3 nM.
In the same order, the values of `O=C1C=C(c2c(-n3cc(Cl)nn3)ccc(Cl)c2F)C[C@H]2CC[C@@H](c3nc(-c4cc[nH]c(=O)c4F)c[nH]3)N12` [Example 200, (3S,8aR)-7-(3-chloro-6-(4-chloro-1H-1,2,3-triazol-1-yl)-2-fluorophenyl)-3-(4-(3-fluoro-2-oxo-1,2-dihydropyridin-4-yl)-1H-imidazol-2-yl)-2,3,8,8a-tetrahydroindolizin-5(1H)-one] are 24.4 nM and 4.4 nM.
In the same order, the values of `Nc1noc2ccc(-c3cnc([C@@H]4CC[C@@H]5CC(c6c(-n7cnnn7)ccc(Cl)c6F)=CC(=O)N54)[nH]3)cc12` [Example 201, (3S,8aR)-3-(5-(3-aminobenzo[d]isoxazol-5-yl)-1H-imidazol-2-yl)-7-(3-chloro-2-fluoro-6-(1H-tetrazol-1-yl)phenyl)-2,3,8,8a-tetrahydroindolizin-5(1H)-one] are 6.9 nM and 9.1 nM.
In the same order, the values of `NC(=O)c1ccc(-c2nc([C@@H]3CC[C@H]4CC(c5c(-n6cc(C(F)(F)F)nn6)ccc(Cl)c5F)=CC(=O)N43)[nH]c2Cl)s1` [Example 202, 5-(5-Chloro-2-((3S,8aS)-7-(3-chloro-2-fluoro-6-(4-(trifluoromethyl)-1H-1,2,3-triazol-1-yl)phenyl)-5-oxo-1,2,3,5,8,8a-hexahydroindolizin-3-yl)-1H-imidazol-4-yl)thiophene-2-carboxamide] are 1.5 nM and 0.6 nM.
For `NC(=O)c1ccc(-c2nc([C@@H]3CC[C@@H]4CC(c5c(-n6cc(C(F)(F)F)nn6)ccc(Cl)c5F)=CC(=O)N43)[nH]c2Cl)s1` [Example 203, 5-(5-Chloro-2-((3S,8aR)-7-(3-chloro-2-fluoro-6-(4-(trifluoromethyl)-1H-1,2,3-triazol-1-yl)phenyl)-5-oxo-1,2,3,5,8,8a-hexahydroindolizin-3-yl)-1H-imidazol-4-yl)thiophene-2-carboxamide], the IC50 at human plasma kallikrein came out at 2.5 nM; at Factor XIa (setting [1]), 0.9 nM.
Regarding `NC(=O)c1cc(-c2cnc([C@@H]3CC[C@@H]4CC(c5c(-n6cc(C(F)(F)F)nn6)ccc(Cl)c5F)=CC(=O)N43)[nH]2)ccn1` [Example 204, 4-(2-((3S,8aR)-7-(3-Chloro-2-fluoro-6-(4-(trifluoromethyl)-1H-1,2,3-triazol-1-yl)phenyl)-5-oxo-1,2,3,5,8,8a-hexahydroindolizin-3-yl)-1H-imidazol-5-yl)picolinamide], the concentration for half-maximal inhibition (IC50) on human plasma kallikrein was 24.5 nM; at Factor XIa (setting [1]) it was 29.1 nM.
`NC(=O)c1ncc(-c2c[nH]c([C@@H]3CC[C@@H]4CC(c5c(-n6cnnn6)ccc(Cl)c5F)=CC(=O)N43)n2)s1` [Example 205, 5-(2-((3S,8aR)-7-(3-Chloro-2-fluoro-6-(1H-tetrazol-1-yl)phenyl)-5-oxo-1,2,3,5,8,8a-hexahydroindolizin-3-yl)-1H-imidazol-4-yl)thiazole-2-carboxamide]: the IC50 on human plasma kallikrein stood at 12.5 nM; on Factor XIa (setting [1]), 3.3 nM.
In the same order, the values of `NC(=O)c1ccc(-c2cnc([C@@H]3CC[C@@H]4CC(c5c(-n6cc(Cl)nn6)ccc(Cl)c5F)=CC(=O)N43)[nH]2)s1` [Example 207, 5-(2-((3S,8aR)-7-(3-Chloro-6-(4-chloro-1H-1,2,3-triazol-1-yl)-2-fluorophenyl)-5-oxo-1,2,3,5,8,8a-hexahydroindolizin-3-yl)-1H-imidazol-5-yl)thiophene-2-carboxamide] are 7.7 nM and 2.5 nM.
In the same order, the values of `NC(=O)c1ncc(-c2cnc([C@@H]3CC[C@@H]4CC(c5c(-n6cc(Cl)nn6)ccc(Cl)c5F)=CC(=O)N43)[nH]2)s1` [Example 208, 5-(2-((3S,8aR)-7-(3-Chloro-6-(4-chloro-1H-1,2,3-triazol-1-yl)-2-fluorophenyl)-5-oxo-1,2,3,5,8,8a-hexahydroindolizin-3-yl)-1H-imidazol-5-yl)thiazole-2-carboxamide] are 7.8 nM and 4.6 nM.
With `NC(=O)c1ccc(-c2nc([C@@H]3CC[C@@H]4CC(c5c(-n6cnnn6)ccc(Cl)c5F)=CC(=O)N43)[nH]c2Cl)s1` [Example 211, 5-(5-Chloro-2-((3S,8aR)-7-(3-chloro-2-fluoro-6-(1H-tetrazol-1-yl)phenyl)-5-oxo-1,2,3,5,8,8a-hexahydroindolizin-3-yl)-1H-imidazol-4-yl)thiophene-2-carboxamide], the values for the IC50 at human plasma kallikrein and on Factor XIa (setting [2]) were 0.8 nM and 0.2 nM, respectively.
Turning to `NC(=O)c1scc(-c2c[nH]c([C@@H]3CC[C@@H]4CC(c5c(-n6cnnn6)ccc(Cl)c5F)=CC(=O)N43)n2)c1F` [Example 214, 4-(2-((3S,8aR)-7-(3-Chloro-2-fluoro-6-(1H-tetrazol-1-yl)phenyl)-5-oxo-1,2,3,5,8,8a-hexahydroindolizin-3-yl)-1H-imidazol-4-yl)-3-fluorothiophene-2-carboxamide], the values for the IC50 at human plasma kallikrein and on Factor XIa (setting [1]) were 1.7 nM and 1.4 nM, respectively.
